Measurements published in patent US20070021485A1, “Aryl (or heteroaryl) azolylcarbinols” (priority 2005, published 2007).
Read-outs that look alike come from different tables or passages of the source.

Columns and labels:
rat bladder contractions = assay: Isovolumetric rhythmic bladder contractions in the anesthetized rat: amplitude and rate of the contractions; assay type: in vivo; details: for amplitude of the bladder contractions / rate of the bladder contractions: anesthetized rat, iv, 6.83, 13.7 and 27.3 mg/kg given as citrate, FIG. 2
Method: (1) Isovolumetric Rhythmic Bladder Contractions in the Anesthetized Rat
(a) Amplitude and Rate of the Contractions
Rat urinary bladder catheterized:
A pressure transducer is used to measure intravesical pressure (recording rate and amplitude of bladder contractions).
An infusion pump is used to fill bladder by 0.1 ml increments of saline until rhythmic contractions. After 15 minutes of constant interval bladder contractions, (R)-(+)-2-((1-methyl-1H-pyrazol-5-yl)(phenyl)methoxy-N-methylethanamine citrate in 6.83, 13.7, and 27.3 mg/kg dosages; (S)-(−)-2-((1-methyl-1H-pyrazol-5-yl)(phenyl)methoxy-N-methylethanamine citrate in 6.83, 13.7 and 27.3 mg/kg dosages; and oxybutinyn in a 1 mg/kg dose were administered by iv. Measurements were made before and then during 15 minute intervals after each administration.
Aditionally the compound 1, accoridng example 1, and its enantiomers were active in rat urinary incontinence test. They inhibited the amplitude of the rat bladder contractions. The compounds were evaluated in a model of cystometry in the anesthesized rat, looking for the effects on isovolumetric rhythmic bladder contractions. The method, which evaluatesthe effects of the test substances on lower urinary tract function, followed that described by Y. Kimura et al. ( Int. J. Urol. 1996, 3: 218-227).

[1] = tested on: acetic acid-induced bladder hyperactivity; assay: Protection against acetic acid-induced bladder hyperactivity in the anesthetized rat; assay type: in vivo; details: for protection of the rat bladder against the acetic acid-induced hyperactivity: cizolirtine 5, 10 mg/kg i.v.; for protection of the rat bladder against the acetic acid-induced hyperactivity / number of micturitions / volume for the first micturition: duloxetine 1 mg/kg; for number of micturitions / volume for the first micturition: cizolirtine 5 and 10 mg/kg, vs control, FIG. 4
Method: (a) Protection Against Acetic Acid-induced Hyperactivity: Urodynamic Parameters
Anesthetized rat bladders were treated with […], […] and 1 mg/kg duloxetine, […] and 5 mg/kg cizolirtine, […] and 10 mg/kg cizolirtine, or […] and 10 mg/kg N-desmethyl metabolite. The number of micturitions, the volume for first micturition, micturition volume, intravesical pressure increase, and AUC of intravesical pressure were measured for each of the treatment groups and the control.
(§1) This is performed on Sprague-Dawley male and female anaesthetized rats. Left carotid artery is inserted with a catheter for the continuous measure of systemic arterial pressure and cardiac frequency. After an incision to the abdomen, a catheter is inserted on the bladder and connected to a pressure transducer and to an infusion pump. The urethra is ligated and the bladder is voided. After stabilization period, saline solution is infused (0.9 % NaC1solution at 5 ml/h rate) and the basal parameters of intravesical pressure are measured for 20 min. Cystometry parameters are the infusion volume and pressure needed to activate the micturition reflex, and the micturition frequency. After stabilization period, the compounds are administered i.v. and, 15 min. later, saline is infused and urodynamic parameters are measured again to compare with basal.
Further the effect on acetic acid-induced bladder hiperactivity is tested.

rat urinary bladder = assay: Urodynamic parameters (cystometry) in the anesthetized rat; assay type: in vivo; details: for mean volume of micturition / number of micturitions / volume for the first micturition: anesthetized rat, iv, duloxetine 1 mg/kg, cizolirtine 10 mg/kg, N-desmethyl metabolite 10 mg/kg, vs control vehicle, FIG. 3
Method: Rat urinary bladder was catheterized. A pressure transducer was used to measure intavesical pressure in anesthetized rats treated with 1 mg/kg duloxetine, 10 mg/kg cizolirtine, 10 mg/kg N-desmethyl metabolite or a control vehicle. Recordings were made of the infusion volume, pressure needed for micturition, number of micturitions during the infusion.
An infusion pump was used to fill bladder with saline until micturition. After stabilization, treatment compounds or control vehicle were administered by iv. Fifteen minutes after administration, saline infusion was started and urodynamic parameters were again analyzed. The number of micturitions, volume for first micturition, mean volume for micturition, and AUC of intravesical pressure were measured for each of the treatment groups and compared to the control.
as §1

[2] = tested on: aversive situation-induced immobility; assay: Inhibition of immobility induced by an aversive situation (tail suspension) in mice; assay type: in vivo; details: Mus musculus, ip, read-out: Immobility test Tail hanging In mice ED50
Method: The test was described by R. D. Porsolt et al. (Arch.int.Pharmacodyn. 1987, 288: 11-30). Following suchg method, the compound to be studied was administered by ip route, and 30 minutes later mice were submitted to an aversive situation: they were tail suspended in the […] for 6 minutes. Mobility time and movements power were authomatically measured and registered in the above mentioned device. The potential antidepressant reduce the mice immobility time.

[3] = tested on: immobility in forced swimming; assay: Water despair test (forced swimming) in rats; assay type: in vivo; details: for Swimming Test Forced swimming In rats, activity at single dose: 40 mg/Kg; for ED50: read-out: Swimming Test Forced swimming In rats ED50
Method: The test was described by R. D. Porsolt et al. (Europ.J.Pharmacol. 1978, 47:379-391). […] The following day, 24 hours later, were let to swim in the water, but only for 5 minutes, and it was […] immobility time. The compounds to be studied were administered by ip route, 60 minutes before the test. The antidepressants reduce the immobility time. […] (Tablel).

reserpine-induced ptosis = assay: Inhibition of reserpine-induced ptosis in mice; assay type: in vivo; details: for ED50: Mus musculus, read-out: Inhibition test Reserpin ptosis In mice ED50
Method: It has been used the test described by S.Garattini et al. (Med.Exp. 1960, 3: 315-320). The antidepressant drugs inhibit the parpebral ptosis induced by reserpine ([…], i.p.) in mice.

serotonin transporter = molecular target: T1, serotonin transporter (Rattus norvegicus, UniProt P31652); assay: Serotonin transporter affinity, (3H)paroxetine binding in rat brain cortex; details: (3H)paroxetine radioligand, serotonin 100 μM non specific
T1 construct: from tissue; host or cells: rat brain cortex
Method: This affinity was studied in rat brain cortex, using (3H)paroxetine ([…]) as radioligand and 5-Hydroxytriptamine (serotonin)(100 μM) as non specific ligand.

[4] = tested on: urinary incontinence secondary to overactive bladder or idiopathic urge incontinence; assay: Clinical Study A, placebo controlled, 50 mg twice a day; assay type: in vivo, human; details: patients
Method: In a placebo controlled clinical trial 79 patients are randomized. Patients are from both genders with ages between 18 and 80 years (inclusive). They have urinary incontinence secondary to overactive bladder (detrusor hyperreflexia or instability) or idiopathic urge incontinence confirmed by the medical history and urodynamic study.
One group of patients is treated with 2-((1-methyl-1H-pyrazol-5-yl)(phenyl)methoxy-N-methylethanamine, 50 mg, twice a day, formulated as a tablet for oral administration. Another group is treated with placebo in matching tablets, twice a day, with administration by oral route. The patients are treated for 84 days.
Efficacy is measured by the difference from baseline in the mean number of leakages, micturitions, urgencies and voidings/24 hours as provided by a 7-day frequency-volume chart in the end of the study visit.
(§2) The primary efficacy analysis is based on the PP population. The treatment groups are compared with respect to the treatment effect, defined as the difference between treatment groups for changes from baseline in the number of voidings per 24 hours.
Additionally, the percentage of responders is compared based on an analysis of the number of patients having <8 voidings/day or experiencing complete dryness or both, and statistical significance determined.

[5] = tested on: urinary incontinence secondary to overactive bladder or idiopathic urge incontinence; assay: Clinical Study B, placebo controlled, 100 mg twice daily; assay type: in vivo, human; details: patients, 100 mg by oral route twice daily, 84 days
Method: In a placebo controlled clinical trial 135 patients are randomized. Patients are from both genders with ages between 18 and 80 years (inclusive). They have urinary incontinence secondary to overactive bladder (detrusor hyperreflexia or instability) or idiopathic urge incontinence confirmed by the medical history and urodynamic study.
One group of patients is treated with 2-((1-methyl-1H-pyrazol-5-yl)(phenyl)methoxy-N-methylethanamine 100 mg formulated as an oral administration (twice daily). Another group is treated with placebo matching capsules, […], with administration by oral route. The patients are treated for 84 days.
Efficacy is measured by the difference from baseline in the mean number of voidings/24 hours as provided by a 7-day frequency-volume chart in the end of study visit.
as §2
Additionally, the percentage of responders is compared based on analysis of the number of patients having <8 voidings per day or experienced complete dryness or both., and statistical significance determined.

[6] = N-desmethyl metabolite 10 mg/kg
[7] = acetic acid-treated rat bladder, N-desmethyl metabolite 10 mg/kg
[8] = acetic acid 0.3% v/v infusion, 10 mg/kg i.v.
[9] = acetic acid 0.3% v/v infusion, 10 mg/kg i.v. acute
[10] = mice, i.p., 30 minutes before tail suspension for 6 minutes
[11] = anaesthetized Sprague-Dawley rats, 10 mg/kg i.v., vs basal
[12] = 50 mg twice a day oral, 84 days, compared with placebo

T1 sequence (P31652 whole entry): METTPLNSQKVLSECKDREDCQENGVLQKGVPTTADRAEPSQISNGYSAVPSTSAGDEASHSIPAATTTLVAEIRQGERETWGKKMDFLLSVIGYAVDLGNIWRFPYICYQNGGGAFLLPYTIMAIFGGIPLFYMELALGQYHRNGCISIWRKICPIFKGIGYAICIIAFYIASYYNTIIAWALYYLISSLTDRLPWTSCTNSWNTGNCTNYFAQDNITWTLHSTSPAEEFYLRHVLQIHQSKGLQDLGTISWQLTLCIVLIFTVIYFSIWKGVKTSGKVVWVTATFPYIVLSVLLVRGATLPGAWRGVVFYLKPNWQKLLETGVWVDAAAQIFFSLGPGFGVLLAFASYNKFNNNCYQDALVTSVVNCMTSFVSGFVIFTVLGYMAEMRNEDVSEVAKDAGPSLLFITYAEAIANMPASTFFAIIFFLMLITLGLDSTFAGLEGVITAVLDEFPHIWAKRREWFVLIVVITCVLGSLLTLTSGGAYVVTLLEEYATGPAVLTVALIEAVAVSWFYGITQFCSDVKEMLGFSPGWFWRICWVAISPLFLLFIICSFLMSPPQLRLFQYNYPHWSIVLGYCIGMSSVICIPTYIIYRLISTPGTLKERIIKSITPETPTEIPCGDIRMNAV

CNCCO[C@@H](c1ccccc1)c1ccnn1C [2-((S)-(1-methyl-1H-pyrazol-5-yl)(phenyl)methoxy)-N-methylethanamine]
amplitude of the bladder contractions (rat bladder contractions): inhibited
rate of the bladder contractions (rat bladder contractions): without modifying the rate

CNCC[C@H](Oc1cccc2ccccc12)c1cccs1 [duloxetine]
protection of the rat bladder against the acetic acid-induced hyperactivity [1, 6]: protected
number of micturitions [1, 7]: reduced
volume for the first micturition [1, 7]: increased
mean volume of micturition (rat urinary bladder): increased
number of micturitions (rat urinary bladder): decreased
volume for the first micturition (rat urinary bladder): increased

CN(C)CCOC(c1ccccc1)c1ccnn1C (centres unmarked) [Cizolirtine]
protection of the rat bladder against the acetic acid-induced hyperactivity [1, 6]: protected
acetic acid-caused increase of bladder pressure [1, 8]: reversed
contractile capacity of the bladder [1, 8]: Neither acetic acid nor cizolirtine significantly affected
acetic acid-caused increase of micturition frequency [1, 9]: significantly reduced
acetic acid-caused reduction of micturition volume [1, 9]: significantly reduced
number of micturitions [1, 7]: reduced
volume for the first micturition [1, 7]: increased
ED50 [2, 10]: 17 mg/kg
Swimming Test Forced swimming In rats, activity at single dose ([3]; rats, i.p.): inactive
ED50 (reserpine-induced ptosis; mice, p.o., reserpine i.p.): 26 mg/kg
bladder contractility (rat urinary bladder; [11]): no alteration
bladder pressure (rat urinary bladder; [11]): significantly reduced
mean micturition volume (rat urinary bladder; [11]): significantly increased
micturition frequency (rat urinary bladder; [11]): trends to decrease
volume required for first micturition (rat urinary bladder; [11]): augment
mean volume of micturition (rat urinary bladder): increased
number of micturitions (rat urinary bladder): decreased
volume for the first micturition (rat urinary bladder): increased

CNCCOC(c1ccccc1)c1ccnn1C (centres unmarked) [Compound 1, 2-((1-methyl-1H-pyrazol-5-yl)(phenyl)methoxy)-N-methylethanamine]
protection of the rat bladder against the acetic acid-induced hyperactivity [1, 6]: protected
number of micturitions (sentence on FIG. 5) ([1]; acetic acid-treated rat bladder, N-desmethyl metabolite 10 mg/kg, FIG. 5): increased
number of micturitions [1, 7]: reduced
volume for the first micturition [1, 7]: increased
amplitude of the rat bladder contractions, rat urinary incontinence test (rat bladder contractions; cystometry in the anesthesized rat, method of Kimura et al.): inhibited
ED50 [2]: 17 mg/kg
ED50 ([3]; Rattus norvegicus, ip): 33 mg/kg
ED50 (reserpine-induced ptosis): 14 mg/kg
mean volume of micturition (rat urinary bladder): increased
number of micturitions (rat urinary bladder): decreased
volume for the first micturition (rat urinary bladder): increased
Ki (serotonin transporter): 116 nM
urge incontinence caused by overactive bladder, majority of efficacy variables ([4]; 50 mg twice a day by oral route, compared to placebo): clinically significant improvements
mean number of daily leakages [4, 12]: significant reduction
mean number of daily micturitions [4, 12]: significant reduction
mean number of daily urgencies [4, 12]: significant reduction
mean number of daily voidings [4, 12]: significant reduction
bladder overactivity [5]: improve bladder overactivity

CNCCOC(c1cccs1)c1ccnn1C.O=C(O)C(=O)O (centres unmarked) [Compound 2, 2-((1-methyl-1H-pyrazol-5-yl)(thiophen-2-yl)methoxy)-N-methylethanamine; oxalate]
ED50 [2, 10]: 33 mg/kg
Swimming Test Forced swimming In rats, activity at single dose ([3]; rats, i.p.): inactive
Inhibition test Reserpin ptosis In mice, activity at single dose (reserpine-induced ptosis; mice, p.o., 40 mg/Kg): inactive

CN[C@H]1CC[C@@H](c2ccc(Cl)c(Cl)c2)c2ccccc21 [Sertraline]
ED50 [2, 10]: 8 mg/kg
ED50 ([3]; Rattus norvegicus, ip, rats, i.p., 60 minutes before the test): 28 mg/kg
ED50 (reserpine-induced ptosis; mice, p.o., reserpine i.p.): 17 mg/kg

CNCCCN1c2ccccc2CCc2ccccc21 [Desipramine]
inhibition at 30 mg/kg ([3]; Rattus norvegicus, ip, rats, i.p., 30 mg/Kg, read-out: Swimming Test Forced swimming In rats, I (inhibition) at single dose): 32%

CNCCO[C@H](c1ccccc1)c1ccnn1C [(R)-2-((1-methyl-1H-pyrazol-5-yl)(phenyl)methoxy)-N-methylethanamine]
amplitude of the bladder contractions (rat bladder contractions): inhibited
rate of the bladder contractions (rat bladder contractions): without modifying the rate
